The term stoichiometry N denotes the number of molecules, sites or subunits per partner or assembly. What is called Km is the substrate concentration at which the rate is half of its maximum. As a reminder, the kcat is the number of substrate molecules converted per active site and unit of time at saturation.

7 molecules from publication PMC5003785, “An unusual UMP C-5 methylase in nucleoside antibiotic polyoxin biosynthesis” (Protein & Cell, 2016) can be followed below.

Data set [1] addresses T1, PolB (Streptomyces asoensis, UniProt C1IC19).
T1 construct: N-terminal His6-tagged, expressed in E. coli BL21(DE3); FAD-containing; homotetramer
Briefly: crystal structure. The format is binding.

The target in data set [2] is T2, SVIThyX2 (Streptomyces viridochromogenes, UniProt D9X6S9).
T2 construct: gene thyX
The data set can be described thus: LC-MS methylation assay. The note with it: NADPH, CH2H4folate; 50 mmol/L Tris-HCl pH 8.0. The format is biochemical.

In data set [3] the target is T3, ThyX (Streptomyces asoensis, UniProt M1ETU3).
T3 construct: gene thyX_2; recombinant
T3 sequence (M1ETU3 1-246): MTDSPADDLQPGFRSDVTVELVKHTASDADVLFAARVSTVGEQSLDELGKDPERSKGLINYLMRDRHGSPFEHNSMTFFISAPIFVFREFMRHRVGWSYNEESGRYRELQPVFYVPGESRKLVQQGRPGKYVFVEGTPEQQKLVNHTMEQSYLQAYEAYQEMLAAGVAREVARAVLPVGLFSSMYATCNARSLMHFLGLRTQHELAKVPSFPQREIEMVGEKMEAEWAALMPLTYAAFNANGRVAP
The data set can be described thus: LC-MS methylation assay. The data set is classed as biochemical. The note with it: NADPH, CH2H4folate; 50 mmol/L Tris-HCl pH 8.0.

Data set [4] deals with PolB from S. cacaoi (UMP C-5 methylase with thymidylate synthase activity) (S. cacaoi). The data set can be described thus: crystal structure; apo-PolB, space group P2(1), two tetramers in the asymmetric unit; 17% PEG4000, 0.2 mol/L Li2SO4, 0.1 mol/L Tris-HCl pH 8.5, 20°C.
Data set [5] shares this target. Briefly: crystal structure; PolB with 4 mmol/L 5-Br dUMP; 1.4 mol/L sodium acetate, 0.1 mol/L sodium cacodylate pH 6.5, 20°C.
Substrate in data set [6]: O=c1ccn([C@@H]2O[C@H](COP(=O)(O)O)[C@@H](O)[C@H]2O)c(=O)[nH]1
Briefly: methylation kinetics. The data set is classed as biochemical, Streptomyces asoensis. The note with it: NADPH and CH2H4folate co-substrates, assay buffer 50 mmol/L Tris-HCl pH 8.0.

Substrate in data set [7]: O=c1ccn([C@H]2C[C@H](O)[C@@H](COP(=O)(O)O)O2)c(=O)[nH]1
Briefly: methylation kinetics. The data set is classed as biochemical, Streptomyces asoensis. The following applies: NADPH and CH2H4folate co-substrates, assay buffer 50 mmol/L Tris-HCl pH 8.0.

T2 sequence (D9X6S9 entry or part of it): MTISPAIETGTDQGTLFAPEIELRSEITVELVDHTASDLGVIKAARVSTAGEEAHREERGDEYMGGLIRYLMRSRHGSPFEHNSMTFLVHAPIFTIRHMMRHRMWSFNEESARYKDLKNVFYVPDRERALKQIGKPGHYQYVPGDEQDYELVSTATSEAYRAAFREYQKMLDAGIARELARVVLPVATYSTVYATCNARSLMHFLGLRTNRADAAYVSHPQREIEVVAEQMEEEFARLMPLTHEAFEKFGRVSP

Consider `O=c1[nH]c(=O)n([C@@H]2O[C@H](COP(=O)(O)O)[C@@H](O)[C@H]2O)cc1Br` [5-Br UMP], for which the crystal structure entry in data set [1] (1.76 Å, substrate analog in active site) was “structures in complex with substrate analogs 5-Br dUMP and 5-Br UMP”.

`O=c1[nH]c(=O)n([C@H]2C[C@H](O)[C@@H](COP(=O)(O)O)O2)cc1Br` [5-Br dUMP]: the crystal structure result in data set [1] (2.28 Å, substrate analog in active site, stacked on FAD isoalloxazine) is “structures in complex with substrate analogs 5-Br dUMP and 5-Br UMP”. With `Cc1cc2nc3c(=O)[nH]c(=O)nc-3n(C[C@H](O)[C@H](O)[C@H](O)COP(=O)(O)OP(=O)(O)OC[C@H]3O[C@@H](n4cnc5c(N)ncnc54)[C@H](O)[C@@H]3O)c2cc1C` [FAD], in data set [1] (bound flavin in the 5-Br dUMP complex), the crystal structure is reported as 5-Br dUMP poses strong π-π interaction with the isoalloxazine moiety of FAD.

Regarding `O=c1ccn([C@@H]2O[C@H](COP(=O)(O)O)[C@@H](O)[C@H]2O)c(=O)[nH]1` [UMP], the LC-MS methylation assay result in data set [2] was “SVIThyX2 was able to catalyze the methylation for both UMP and dUMP”. With `O=c1ccn([C@H]2C[C@H](O)[C@@H](COP(=O)(O)O)O2)c(=O)[nH]1` [dUMP], the LC-MS methylation assay entry in data set [3] was “recombinant S. cacaoi ThyX could catalyze the methylation of dUMP but not UMP”; in data set [2], “SVIThyX2 was able to catalyze the methylation for both UMP and dUMP”. With “PolB from S. cacaoi (UMP C-5 methylase with thymidylate synthase activity) (enzyme)”, the stoichiometry N in data set [4] and in data set [5] was 4 each time.

B1: PolB (Streptomyces asoensis) (protein)
chain: MESPRIELRSDITVELVDSSASDLAVVKAARVSTAGEDANDELYDGGSTRGLIRYLMRSRHGSPFEHNSMTFLVRAPIFTVRHLMRHRTWSFNEESARYREVGAAFYVPDATRLLRQEGKPGDYRYVGGSTDDHQQVVRSATRAYEVAFEEYQRLLDSGIAREIARLVLPVSTYSVLYATCNARALMHFLSLRTHRPDAAYVSHPQREIEMVAEQMETAWAKLMPVTHEAFTAFGRVSP
notes: N-terminal His6-tagged, expressed in E. coli BL21(DE3); FAD-containing; homotetramer
Turning to B1, in data set [6], the Michaelis constant (Km) worked out at 19.48 ± 4.15 µM and the kcat is 0.0515 ± 0.00283 s⁻¹. Moreover, in data set [7], the Km is 12.96 ± 0.89 µM and the kcat came out at 0.029 ± 0.00083 s⁻¹.
